This passage reports EC50 and CC50 results from US20190375708A1 (VenatoRx Pharmaceuticals, Inc., priority 2018, published 2019).

Data set [1] relates to HBV replication in HepAD38 cells. Nature of the data set: Anti-HBV replication assay in HepAD38 cells (QPCR of extracellular HBV DNA). The format is cell-based, HBV (genotype D, serotype ayw). As to conditions: Hepatitis B virus, 168 h, 7 days incubation, extracellular HBV DNA by QPCR, read-out: Anti-HBV EC50. The method in brief: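 Tet-off HepAD38, 7-day compound exposure ([…], 1 log10 steps, DMSO vehicle), 37 °C. Extracellular HBV DNA by QPCR, copies/mL via standard curve, % inhibition vs vehicle, EC50 by 4-parameter regression. Entecavir as positive control.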

A short description of data set [2]: In vitro cytotoxicity assay (MTT cell viability) in HepG2 cells. The format is cell-based, human. As to conditions: human. The method in brief:
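HepG2 seeded overnight, then 7-day compound exposure (30 μM–1.0 nM, half-log steps), 37 °C. MTT 3-4 h, DMSO solubilization, A492. % of vehicle → CC50, 4-PL fit.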

SMILES strings stand for the structures.

For `Cc1cc(NC(=O)c2c(C)c(C(=O)C(=O)NC(C)(C)CN3CCN(C)CC3)n(C)c2C)ccc1F` [Example 651, N-(4-fluoro-3-methylphenyl)-1,2,4-trimethyl-5-(2-((2-methyl-1-(4-methylpiperazin-1-yl)propan-2-yl)amino)-2-oxoacetyl)-1H-pyrrole-3-carboxamide], the EC50 (in general, the concentration needed to bring the measured effect to its halfway point) in data set [1] is < 50 nM. The CC50 (commonly the concentration that lowers cell viability or growth by half) at 7 days in data set [2] is > 30000 nM.
Take `Cc1cc(NC(=O)c2c(C)c(C(=O)C(=O)N[C@@H]3CC[C@@H](O)C3)n(C)c2C)ccc1F` [Example 127, N-(4-fluoro-3-methylphenyl)-5-(2-(((1R,3R)-3-hydroxycyclopentyl)amino)-2-oxoacetyl)-1,2,4-trimethyl-1H-pyrrole-3-carboxamide]: in data set [1], the EC50 is < 50 nM. The CC50 at 7 days in data set [2] was > 30000 nM.
Turning to `Cc1cc(NC(=O)c2c(C)c(C(=O)C(=O)N[C@H]3CC[C@H](CO)CC3)n(C)c2C)ccc1F` [Example 675, N-(4-fluoro-3-methylphenyl)-5-(2-(((1r,4r)-4-(hydroxymethyl)cyclohexyl)amino)-2-oxoacetyl)-1,2,4-trimethyl-1H-pyrrole-3-carboxamide], the EC50 in data set [1] was < 50 nM. In addition, the CC50 at 7 days in data set [2] was > 30000 nM.
On to `COCC(C)(C)NC(=O)C(=O)c1c(C)c(C(=O)Nc2cnc(F)c(C)c2)c(C)n1C` [Example 167, N-(6-fluoro-5-methylpyridin-3-yl)-5-(2-((1-methyoxy-2-methylpropan-2-yl)amino)-2-oxoacetyl)-1,2,4-trimethyl-1H-pyrrole-3-carboxamide], for which, in data set [1], the EC50 is < 50 nM. Besides, in data set [2], the CC50 at 7 days is > 30000 nM.
Turning to `Cc1cc(NC(=O)c2c(C)c(C(=O)C(=O)NC(C)(C)CO)n(CCO)c2C)ccc1F` [Example 50, N-(4-fluoro-3-methylphenyl)-5-(2-((1-hydroxy-2-methylpropan-2-yl)amino)-2-oxoacetyl)-1-(2-hydroxyethyl)-2,4-dimethyl-1H-pyrrole-3-carboxamide], in data set [1], the EC50 is > 1000 nM. Besides, in data set [2], the CC50 at 7 days is > 30000 nM.
For the compound `Cc1cc(NC(=O)c2c(C)c(C(=O)C(=O)N[C@H]3C4CC5CC3C[C@](O)(C5)C4)n(CCF)c2C)ccc1F` [Example 118, N-(4-fluoro-3-methylphenyl)-1-(2-fluoroethyl)-5-(2-(((1R,2s,3S,5s,7s)-5-hydroxyadamantan-2-yl)amino)-2-oxoacetyl)-2,4-dimethyl-1H-pyrrole-3-carboxamide], the EC50 in data set [1] is < 50 nM. Further, the CC50 at 7 days in data set [2] is > 30000 nM.
For the compound `Cc1cc(NC(=O)c2c(C)c(C(=O)C(=O)NCCc3cccs3)n(C)c2C)ccc1F` [Example 347, N-(4-fluoro-3-methylphenyl)-1,2,4-trimethyl-5-(2-oxo-2-((2-(thiophen-2-yl)ethyl)amino)acetyl)-1H-pyrrole-3-carboxamide], the EC50 in data set [1] is < 50 nM. Also, the cytotoxic concentration (CC50) at 7 days in data set [2] is > 30000 nM.
With `Cc1nc2c(s1)C(NC(=O)C(=O)c1c(C)c(C(=O)Nc3ccc(F)c(C)c3)c(C)n1C)CCC2` (stereo not drawn) [Example 355, N-(4-fluoro-3-methylphenyl)-1,2,4-trimethyl-5-(2-((2-methyl-4,5,6,7-tetrahydrobenzo[d]thiazol-7-yl)amino)-2-oxoacetyl)-1H-pyrrole-3-carboxamide], the EC50 in data set [1] is < 50 nM. Also, in data set [2], the CC50 at 7 days is > 30000 nM.
For the compound `CC[C@@H](CO)NC(=O)C(=O)c1c(C)c(C(=O)Nc2cnc(F)c(C)c2)c(C)n1C` [Example 186, (S)-N-(6-fluoro-5-methylpyridin-3-yl)-5-(2-((1-hydroxybutan-2-yl)amino)-2-oxoacetyl)-1,2,4-trimethyl-1H-pyrrole-3-carboxamide], in data set [1], the EC50 fell in the range of 50 to 499 nM. Also, the CC50 at 7 days in data set [2] is > 30000 nM.
The corresponding values for `Cc1noc([C@@H](C)NC(=O)C(=O)c2c(Cl)c(C(=O)Nc3ccc(F)c(F)c3)c3n2CCC3)n1` [Example 567, (R)-6-chloro-N-(3,4-difluorophenyl)-5-(2-((1-(3-methyl-1,2,4-oxadiazol-5-yl)ethyl)amino)-2-oxoacetyl)-2,3-dihydro-1H-pyrrolizine-7-carboxamide] are < 50 nM and > 30000 nM.
With `O=C(N[C@H]1CCC[C@H]1O)C(=O)c1c(Cl)c(C(=O)Nc2ccc(F)c(Cl)c2)c2n1CCCC2` [Example 514, 2-chloro-N-(3-chloro-4-fluorophenyl)-3-(2-(((1S,2R)-2-hydroxycyclopentyl)amino)-2-oxoacettyl)-5,6,7,8-tetrahydroindolizine-1-carboxamide], the EC50 in data set [1] was 50 to 499 nM. The compound further showed a CC50 at 7 days in data set [2] of 5000 to 30000 nM.
The corresponding values for `Cc1cc(NC(=O)c2cc(C(=O)C(=O)NC(C)(C)C)n3c2CN(C(=O)OC(C)(C)C)CC3)ccc1F` [Example 587, tert-butyl 6-(2-(tert-butylamino)-2-oxoacetyl)-8-((4-fluoro-3-methylphenyl)carbamoyl)-3,4-dihydropyrrolo[1,2-a]pyrazine-2(1H)-carboxylate] are 50 to 499 nM and > 30000 nM.
As for `Cc1cc(NC(=O)c2c(C)c(C(=O)C(=O)N[C@@H](C(=O)O)[C@@H](C)O)n(C)c2C)ccc1F` [Example 52, (2-(4-((4-fluoro-3-methylphenyl)carbamoyl)-1,3,5-trimethyl-1H-pyrrol-2-yl)-2-oxoacetyl)-D-allothreonine], in data set [1], the EC50 was > 1000 nM. Further, in data set [2], the CC50 at 7 days is > 30000 nM.
As to `Cc1cc(NC(=O)c2c(C)c(C(=O)C(=O)N[C@H]3CC[C@H](C(C)(C)O)CC3)n(C)c2C)ccc1F` [Example 677, N-(4-fluoro-3-methylphenyl)-5-(2-(((1r,4r)-4-(2-hydroxypropan-2-yl)cyclohexyl)amino)-2-oxoacetyl)-1,2,4-trimethyl-1H-pyrrole-3-carboxamide], the EC50 in data set [1] was < 50 nM. Also, the CC50 at 7 days in data set [2] is > 30000 nM.
The corresponding values for `Cc1cc(NC(=O)C(=O)c2c(C)c(C(=O)Nc3ccc(F)c(C)c3)c(C)n2C)on1` [Example 304, N-(4-fluoro-3-methylphenyl)-1,2,4-trimethyl-5-(2-((3-methylisoxazol-5-yl)amino)-2-oxoacetyl)-1H-pyrrole-3-carboxamide] are < 50 nM and 5000 to 30000 nM.
As to `Cc1cc(NC(=O)c2c(C)c(C(=O)C(=O)Nc3ccc(F)c(F)c3)n(C)c2C)ccc1F` [Example 231, 5-(2-((3,4-difluorophenyl)amino)-2-oxoacetyl)-N-(4-fluoro-3-methylphenyl)-1,2,4-trimethyl-1H-pyrrole-3-carboxamide], in data set [1], the EC50 is < 50 nM. Besides, the CC50 at 7 days in data set [2] is 5000 to 30000 nM.
On to `Cc1cc(NC(=O)c2c(C)c(C(=O)C(=O)NCC(C)(C)O)n(C)c2C)cnc1F` [Example 183, N-(6-fluoro-5-methylpyridin-3-yl)-5-(2-((2-hydroxy-2-methylpropyl)amino)-2-oxoacetyl)-1,2,4-trimethyl-1H-pyrrole-3-carboxamide], for which the EC50 in data set [1] fell in the range of 500 to 1000 nM. Also, the CC50 at 7 days in data set [2] was > 30000 nM.
On to `Cc1cc(NC(=O)c2c(C)c(C(=O)C(=O)NC3CCSCC3)n(C)c2C)ccc1F` [Example 223, N-(4-fluoro-3-methylphenyl)-1,2,4-trimethyl-5-(2-oxo-2-((tetrahydro-2H-thiopyran-4-yl)amino)acetyl)-1H-pyrrole-3-carboxamide], for which the EC50 in data set [1] was < 50 nM. For the same compound, the CC50 at 7 days in data set [2] was in the range of 5000 to 30000 nM.
In the case of `Cc1cc(NC(=O)c2c(C)c(C(=O)C(=O)N[C@@H](C(=O)O)C(C)(C)C)n(C)c2C)ccc1F` [Example 31, (R)-2-(2-(4-((4-fluoro-3-methylphenyl)carbamoyl)-1,3,5-trimethyl-1H-pyrrol-2-yl)-2-oxoacetamido)-3,3-dimethylbutanoic acid], in data set [1], the EC50 fell in the range of 50 to 499 nM. For the same compound, in data set [2], the CC50 at 7 days was > 30000 nM.
Regarding `Cc1cc(Cl)cc(NC(=O)c2c(C)c(C(=O)C(=O)N[C@H]3CNC(=O)C3)n(C)c2C)c1` [Example 684, (R)-N-(3-chloro-5-methylphenyl)-1,2,4-trimethyl-5-(2-oxo-2-((5-oxopyrrolidin-3-yl)amino)acetyl)-1H-pyrrole-3-carboxamide], the EC50 in data set [1] is < 50 nM. The CC50 at 7 days in data set [2] was > 30000 nM.
For `COCC(C)(C)NC(=O)C(=O)c1c(C)c(C(=O)Nc2ccc(F)c(C)c2)c(C)n1C` [Example 169, N-(4-fluoro-3-methylphenyl)-5-(2-((1-methoxy-2-methylpropan-2-yl)amino)-2-oxoacetyl)-1,2,4-trimethyl-1H-pyrrole-3-carboxamide], the EC50 in data set [1] is < 50 nM. Besides, the CC50 at 7 days in data set [2] is > 30000 nM.
For the compound `Cc1cc(NC(=O)c2c(C)c(C(=O)C(=O)N[C@H]3C[C@H](O)C3)n(C)c2C)ccc1F` [Example 129, N-(4-fluoro-3-methylphenyl)-5-(22-(((1r,3r)-3-hydroxycyclobutyl)amino)-2-oxoacetyl)-1,2,4-trimethyl-1H-pyrrole-3-carboxamide], the EC50 in data set [1] is < 50 nM. Besides, the CC50 at 7 days in data set [2] was > 30000 nM.
With `Cc1cc(NC(=O)c2c(C)c(C(=O)C(=O)NC3(c4nc(-c5ccncc5)no4)CCCCC3)n(C)c2C)ccc1F` [Example 630, N-(4-fluoro-3-methylphenyl)-1,2,4-trimethyl-5-(2-oxo-2-((1-(3-(pyridin-4-yl)-1,2,4-oxadiazol-5-yl)cyclohexyl)amino)acetyl)-1H-pyrrole-3-carboxamide], the EC50 in data set [1] was < 50 nM. For the same compound, in data set [2], the CC50 at 7 days was > 30000 nM.
With `CNC(=O)[C@@H](NC(=O)C(=O)c1c(C)c(C(=O)Nc2ccc(F)c(C)c2)c(C)n1C)C1CC1` [Example 123, (S)-5-(2-((1-cyclopropyl-2-(methylamino)-2-oxoethyl)amino)-2-oxoacetyl)-N-(4-fluoro-3-methylphenyl)-1,2,4-trimethyl-1H-pyrrole-3-carboxamide], the EC50 in data set [1] is 50 to 499 nM. Moreover, in data set [2], the CC50 at 7 days was > 30000 nM.
